Patent US11986512B2, “Compositions and methods for cancer therapy” (Thetis Pharmaceuticals LLC, priority 2021, dated 2024)

How the values were obtained:
[1] = tested on: polymorphonuclear leukocyte (PMN) recruitment; conditions: equimolar dose; cited from earlier work
[2] = tested on: HPV tumorigenesis; conditions: cited from earlier work
[3] = tested on: CD4+ and CD8+ cells in the liver; conditions: administration of either RvD1 or RvE1; cited from earlier work
[4] = tested on: LLC cells; experiment: Metastatic LLC resection model, perioperative (neo-adjuvant) treatment; assay type: in vivo, C57BL/6J male mice; conditions: 5 mg/kg, i.p, Q6D, first dose 24 hours prior to surgery; compared to vehicle control
Description: To investigate the efficacy of LTD dosing of bis RvE1 Mg-di-lysinate as neo-adjuvant therapy, a study was conducted in the metastatic LLC resection model with treatment initiated in the perioperative window. A total of fifteen (15) C57BL/6J male mice were injected subcutaneously with 1×10e6 living LLC cells. Once tumors reached approximately 1200-1500 mme3 in size, the mice were randomized (n=4-8 per group) to treatment with vehicle (SC, Q6D), bis RvE1 Mg-di-lysinate (300 ug/kg, SC, Q6D), or cisplatin (5 mg/kg, i.p, Q6D), followed by surgical resection of the tumors. The mice in the vehicle and cisplatin groups received an initial dose twenty-four (24) hours prior to surgery, and the mice treated with bis RvE1 Mg-di-lysinate received an initial dose two (2) hours prior to surgery. All mice were sacrificed on day 19 following the death of three mice in the vehicle control group on day 18.

[5] = tested on: LLC cells; experiment: Lewis lung carcinoma (LLC) model, with and without anti-PD1 or cisplatin; assay type: in vivo, C57BL/6J male mice; conditions: monotherapy, 5 mg/kg, i.p, Q5D
Description: A representative compound of Formula IV, RvE1 magnesium dilysinate, was tested for efficacy in several mouse models of cancer, including the Panc2-H7 model of pancreatic cancer, the Lewis lung carcinoma (LLC) model, the MC38 model of colorectal cancer, and the B16F10 model of melanoma. These models are well established, highly tumorigenic syngeneic models in which murine cancer cell lines are injected subcutaneously (SC) into the dorsum of C57BL/6J mice. If left untreated, these tumors grow rapidly and lead to death or euthanasia, per protocol. As detailed below in Examples 1-9 and the accompanying figures, bis RvE1 Mg-di-lysinate (Compound 1) was unexpectedly effective as an anti-cancer agent in each of these model systems when administered in a less than daily (LTD) dosing regimen. […] Without being bound by any theory, the surprising efficacy of LTD dosing of resolvins in the cancer model systems described here may be the result of durable effects on the tumor microenvironment including changes in immune cell phenotype, vascularization, stromal phenotype, and antigen presentation, as well as durable effects on the T-cell compartment such as T-cell priming and increased tumor-infiltrating lymphocytes.
To expand our understanding of bis RvE1 Mg-di-lysinate as a cancer therapy that could be used in combination with other cancer therapies including immune checkpoint inhibitors, bis RvE1 Mg-di-lysinate monotherapy and in combination either anti-PD1 or cisplatin was investigated in the LLC model of non-small cell lung cancer, which is a model known to unresponsive to anti-PD1 therapy and moderately responsive to cisplatin. Yu et al., J Exp Clin Cancer Res. 2010; 29(1):46; Lechner et al., J Immunother. 2013; 36(9):477-489. A total of forty (40) C57BL/6J male mice were injected subcutaneously with 1×10e6 living LLC cells. […] In addition, bis RvE1 Mg-di-lysinate was evaluated in combination with anti-PD1 or cisplatin. […]

[6] = tested on: KPC cells; experiment: Orthotopic KPC model of pancreatic cancer, survival; assay type: in vivo, C57BL/6J male mice
Description: To expand our understanding of less than daily (LTD) dosing of bis RvE1 Mg-di-lysinate as a cancer therapy that could be used in combination with chemotherapy, bis RvE1 Mg-di-lysinate (Compound 1) was investigated in the orthotopic KPC model of pancreatic cancer. A total of fifteen (15) C57BL/6J male mice were implanted orthotopically with 5×10e5 living KPC cells into the pancreas. The mice were randomized (n=7-8) to treatment with bis RvE1 Mg-di-lysinate (300 ug/kg, SC, Q6D) with or without gemcitabine (50 mg/kg, IP, Q3D, up to 6 doses) one day after tumor cell implantation.

## CCC(=O)/C=C/C=C\C[C@@H](O)/C=C/C=C/C=C\[C@@H](O)CCCC(=O)O [Compound 18-oxo-RvE1, 18-oxo-RvE1]
[1]
  activity in zymosan-induced peritonitis (PMN recruitment): devoid of activity

## CC/C=C\C[C@H](O)/C=C/C=C\C=C\C=C\[C@@H](O)[C@@H](O)C/C=C\CCC(=O)O [RvD1, 7S,8R,17S-trihydroxy-4Z,9E,11E,13Z,15E,19Z-docosahexaenoic acid]
[2]; in vivo
  tumor infiltration levels of CD4+ and CD8+ T cells: did not modify tumor infiltration levels of CD4+ and CD8+ T cells
[2]; via modulated activity of tumor-associated neutrophils (PMN)
  tumor progression: reduce tumor progression
[3]
  levels of CD4+ and CD8+ cells in the liver: markedly downregulated levels of CD4+ and CD8+ cells in the liver

## CC[C@@H](O)/C=C/C=C\C[C@@H](O)/C=C/C=C/C=C\[C@@H](O)CCCC(=O)O [RvE1, 5S,12R,18R-trihydroxy-6Z,8E,10E,14Z,16E-eicosapentaenoic acid]
[1]
  activity in zymosan-induced peritonitis (PMN recruitment): potently reduced polymorphonuclear leukocyte (PMN) recruitment
[3]
  levels of CD4+ and CD8+ cells in the liver: markedly downregulated levels of CD4+ and CD8+ cells in the liver

## N.N.[Cl][Pt][Cl] [cisplatin, reference compound]
[4]
  number of lung metastases: failed to show a significant reduction
  number of mice with lymph node metastasis: failed to show a significant reduction
[5]
  tumor volume (Day 11 vs Day 0): failed to demonstrate efficacy as monotherapy compared to placebo

## Nc1ccn([C@@H]2O[C@H](CO)[C@@H](O)C2(F)F)c(=O)n1 [gemcitabine, reference compound]
[6]; gemcitabine monotherapy group
  mice alive as of the last observation (day 250): zero of eight mice
[6]; gemcitabine monotherapy, 50 mg/kg, IP, Q3D, up to 6 doses
  mean survival: 25 days
